Values quoted from earlier work, collected in patent publication US12044651B2, “Sensor device and methods” (SCENTIAN BIO LIMITED, priority 2016, dated 2024).

tested on: BdorOBP2; conditions: ref 39; cited from earlier work

| Compound | detection limit |
| --- | --- |
| C=CCc1ccc(OC)c(OC)c1 [4-allylveratrole] | ~10^−6 M |
| CCCCOC(=O)c1ccccc1C(=O)OCCCC [dibutyl phthalate] | ~10^−6 M |
| CC(=O)OCCC(C)C [isoamyl acetate] | ~10^−6 M |
| COC(=O)c1ccc(O)cc1 [methy-p-hydroxyl benzoate] | ~10^−6 M |
| O=CCc1ccccc1 [phenylacetaldehyde] | ~10^−6 M |
| CC(=O)/C=C/C1=C(C)CCCC1(C)C [β-ionone] | ~10^−6 M |
